Experimental data published in PubChem BioAssay (NCI).
“And” between values parts separate entries of the source, which are not always exact repeats. Identical values can stand only once.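 Results reflect a 48-hour exposure of cells in 96-well plates to compound at five concentrations. Here, GI50 denotes the concentration required for 50% inhibition of growth. Definition used: TGI = concentration required for complete inhibition of growth.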 Where a SMILES comes first, the peptide text is derived from it. [ ]: non-standard residue; d: D form. 2Nal = N[CH](Cc1ccc2ccccc2c1)C(=O)O

What was measured:
Assay in all cases: NCI tumour cell line growth inhibition, 48 h
RXF 393 renal = test system: RXF 393 renal
SK-MEL-28 melanoma = test system: SK-MEL-28 melanoma
SK-MEL-2 melanoma = test system: SK-MEL-2 melanoma
A498 renal = test system: A498 renal
SNB-75 CNS = test system: SNB-75 CNS
IGROV1 ovarian = test system: IGROV1 ovarian
PC-3 prostate = test system: PC-3 prostate
CCRF-CEM leukemia = test system: CCRF-CEM leukemia
SW-620 colon = test system: SW-620 colon
MDA-MB-231 breast = test system: MDA-MB-231 breast

Row | Compound | GI50 (RXF 393 renal) | TGI (RXF 393 renal) | TGI (SK-MEL-28 melanoma) | GI50 (SK-MEL-2 melanoma) [µM] | TGI (SK-MEL-2 melanoma) | GI50 (A498 renal) | TGI (A498 renal) [µM] | TGI (SNB-75 CNS) | GI50 (IGROV1 ovarian) [µM] | TGI (IGROV1 ovarian) | TGI (PC-3 prostate) [µM] | GI50 (CCRF-CEM leukemia) [µM] | TGI (CCRF-CEM leukemia) | GI50 (SW-620 colon) [µM] | TGI (SW-620 colon) | TGI (MDA-MB-231 breast) [µM] | GI50 (SK-MEL-28 melanoma) [µM] | GI50 (SNB-75 CNS) [µM] | GI50 (PC-3 prostate) [µM] | GI50 (MDA-MB-231 breast) [µM]
1 | CC(C)C(NC(=O)C(CCCCN)NC(=O)C(Cc1c[nH]c2ccccc12)NC(=O)C(Cc1ccc(O)cc1)NC(=O)C(CS)NC(=O)C(N)Cc1ccc2ccccc2c1)C(=O)NC(CS)C(=O)NC(C(N)=O)C(C)O (stereo not drawn) (H-[2Nal]CYWKVCT-NH2; configuration not given here) | > 100 µM | > 100 µM | > 100 µM | > 100 | > 100 µM | > 100 µM | > 100 | > 100 µM | > 100 | > 100 µM | > 12.5 | > 100 | > 100 µM | > 100 | > 100 µM | > 12.5 |  |  |  | 
2 | O=c1c(-c2ccc(O)cc2)coc2cc(OC3OC(CO)C(O)C(O)C3O)cc(O)c12 (stereo not drawn) | > 10 µM | > 100 µM | > 100 µM | > 100 | > 100 µM |  | > 100 | > 100 µM | > 100 | > 100 µM | > 100 | > 10 | > 100 µM |  | > 10 µM | > 100 | > 100 | > 10 |  | 
3 | COC(=O)C1=C(C(=O)OC)C2OC1c1cc3ccccc3cc12 |  | 3.29 µM | 4.09 µM |  | 29.5 µM |  | 36.7 | 38.7 µM |  | 9.58 µM | 32.2 |  | > 100 µM |  | 3.96 µM | 33.7 |  |  |  | 
4 | CCOC(=O)c1csc(NC(=O)COc2cccc(/C=C3\CSc4ccccc4C3=O)c2)n1 | 2.86 µM | 11.2 µM | 6.18 µM | 0.448 | 0.989 µM | 12.1 µM | 24.5 | 4.45 µM | 0.166 | 0.363 µM | 1.52 | 0.472 |  | 0.992 | 2.7 µM | 19.1 | 2.51 | 0.275 | 0.246 | 3.87
5 | COc1cc(/C=C\c2cc(/C=C\c3ccc(O)c(OC)c3)n(C(=O)CNc3ccc(Cl)cc3)n2)ccc1O | 2.1 µM | 4.67 µM | 11.6 µM | 3.97 | 18.8 µM | 7.64 µM | 20 | 13 µM | 2.84 | 14.3 µM | 47.9 | 1.49 | 5.45 µM | 4.75 | 23.2 µM | 45 | 2.3 | 2.84 | 3.38 | 4.02
6 | CCOc1c(C#N)c2c(N)ncnc2n1C1OC(CO)C(O)C1O (stereo not drawn) | 2.27 µM | 6.64 µM | 11.8 µM | 8.61 | 28.3 µM | 4.23 µM | 49.2 | > 76 µM | 0.761 | 2.54 µM | > 31.7 | 3.18 | 24 µM | 2.18 | > 44.6 µM | > 82.9 | 2.52 | 5.61 | 2.77 | 6.15
7 | C1CCN2CC3CCCN4CCCC(C2C1)C34 (stereo not drawn) |  | > 100 µM | > 100 µM |  | > 100 µM |  | > 100 | > 100 µM |  | > 100 µM | > 100 |  | > 100 µM |  | > 100 µM | > 100 |  |  |  | 
8 | CC(C)CCC(=O)[C@@H](C)[C@H]1[C@@H](OC2OCC(O)C(O)C2NS(C)(=O)=O)C[C@H]2[C@@H]3CC=C4C[C@@H](O)CC[C@]4(C)[C@H]3CC[C@]12C (stereo partly drawn) | 0.178 µM | 0.783 µM | 1.53 µM | 0.739 | 2.27 µM | 0.724 µM | 1.7 | 9.58 µM | 2.22 | > 40 µM | 4.16 | 0.424 | 2.47 µM | 1.54 | 6.02 µM | 8.65 | 0.53 | 0.571 | 0.982 | 2
9 | COC(=O)C(=O)C(C(=O)C(=O)Nc1ccc(C)cc1)c1nc2ccc(C(=O)c3ccccc3)cc2[nH]c1=O (stereo not drawn) |  | > 100 µM | > 100 µM |  | > 100 µM |  | > 100 | > 100 µM |  | > 100 µM | > 100 |  | > 100 µM |  | > 100 µM | > 100 |  |  |  | 
10 | COc1ccc(/C=C\c2cc(OC)c(OC)c(OC)c2)c(O)c1O | < 0.0322 µM and 0.111 µM | 36 µM and 6.31 µM | 49.6 µM and 60.2 µM | 0.0705 | 33.3 µM and 7.62 µM | 0.247 µM and 0.05 µM |  | 20.7 µM and 48.2 µM | 0.212 | 20.6 µM and 54.2 µM | 36.1 | 0.274 | 30.8 µM and 11.4 µM | 0.0715 | 16.9 µM and 49.9 µM | 18.5 | 0.655 | 2.36 |  | 
11 | CC1=NN(C(=O)c2ccncc2)C(=O)C1N=Nc1ccc2ccccc2c1 (stereo not drawn) |  | > 100 µM | > 100 µM |  | > 95.2 µM |  | > 100 | > 100 µM |  | > 100 µM | > 100 |  | > 100 µM |  | > 100 µM | > 100 |  |  |  | 
12 | Cc1nnc(-c2ccc(C)c(-c3ccc(C(=O)NCc4ccc(Cl)cc4)cc3)c2)o1 | 6.28 µM | > 25 µM | > 25 µM | 12.7 | > 25 µM | 7.03 µM | > 25 | > 25 µM | > 16.3 | > 25 µM | > 25 | 14.7 | > 25 µM | > 25 | > 25 µM | > 25 | 14.3 | 7.88 | 8.82 | 10.4
13 | NNC(=S)Nc1cccc(Cl)c1 |  | > 100 µM | > 100 µM |  | > 100 µM |  | > 100 | > 100 µM |  | > 100 µM | > 100 |  | > 100 µM |  | > 100 µM | > 100 |  |  |  | 
14 | O=S(=O)(Nc1ccc2ccccc2c1)c1ccc(-c2cnc(C3CC3)o2)cc1 | 0.573 µM | 3.92 µM | 20.8 µM | 1.43 | 20.6 µM | 0.462 µM | 5.28 | 6.07 µM | 1.08 | 14 µM | 19.1 | 1.64 | > 100 µM | 0.468 | 18.3 µM | 14.2 | 4.8 | 0.616 | 1.69 | 2.81
